Laboratory results published in patent US20110212235A1, “ANTIMICROBIAL SALT SOLUTIONS FOR CHEESE PROCESSING APPLICATIONS” (priority 2006, published 2011).
Marks after values point to notes of the source that are not given here.

Assays:
Type in all cases: cell-based
L. monocytogenes [1] = test: L. monocytogenes challenge in beef plant chill brine at 4° C.; settings: after 4 hours at 4° C.; surfactant added to beef plant brine, approximately 17% sodium chloride
Description: (§1) 1. Inoculate a separate tube containing approximately 10 ml of Brain Heart infusion (BHI) broth with the following L. monocytogenes strains: H2446 (CDC Global Standard), Scott A (serotype 4b), 12243 (serotype 1/2a), and two strains isolated from the environment of a cooked meat and poultry facility, designated WP1, and WP4. Incubate the tubes at least 5 days at 7-10° C.+/−2° C. 2. Assume the growth to be 10^9 cfu/ml. Serially dilute each culture in cold (˜7° C.). Butterfield's Phosphate Buffered Water (PBW) to 10^8 cfu/ml (1:10). Since five cultures of L. monocytogenes are being used as a cocktail, begin the dilution series using 2.20 ml of each culture added to 99 ml of PBW. 3. Plate (−6, −7, −8) the diluted culture to get the starting count of the inoculum on Modified Oxford medium (MOX) using a thin agar overlay (TAL) technique (overlay with Trypticase Soy Agar [TSA]) to revive injured cells. 4. Add 1 ml of the diluted cocktail to 100 ml of cold test solution. 5. Mix the solutions well. 6. Determine the L. monocytogenes population at time 0 and 4 hours. Plate −1 (0.1 ml on 1 plate), −2, −3, and −4 dilutions using spread plates on MOX TAL with TSA. 7. Incubate the test solutions at test temperature for the duration of the experiment. 8. Incubate the MOX TAL with TSA plates at 20° C.+/−2° C. for 72+/−3 hours. Count representative colonies, which are black, and multiply by the dilution factor.
Several tests were carried out to determine the effectiveness of embodiments according to the invention in meat processing chill brines. In one experiment, brine was taken at the end of a production week from a brine chiller used in a ready to eat, cooked beef production line. The sodium chloride concentration in this brine was approximately 17%. Samples of the brine with and without added surfactant were inoculated with a cocktail of L. monocytogenes as per the procedure described above, incubated at 4° C. for four hours, and then plated to determine L. monocytogenes survival.

L. monocytogenes [2] = test: L. monocytogenes cocktail challenge of surfactant/salt solutions at 2° C.; settings: after 4 hours in solution at 2° C.
Description: Tests were generally run according to the following procedure:
as §1

L. monocytogenes [3] = test: L. monocytogenes kill in cold salt/acid/surfactant solutions; settings: for L. monocytogenes, Time 4 Hours / L. monocytogenes, Time 0: cold; for Population at 4 hours: concentrations stated in the solution, no added acid, average of two runs where starred
Description: To study chilling brine application of the current embodiment, tests were run on 17% by weight solutions of formulas consisting of between 0.3% and 6.0% citric acid, between 50 and 500 ppm SLS, and between 94% and 99.7% sodium chloride. Test solutions were cooled to −7° C. and inoculated with several strains of L. monocytogenes.
An experiment was run to determine if solutions containing sodium chloride, sodium lauryl sulfate, and various acids would kill L. monocytogenes at cold temperatures. […] A 1.0 ml aliquot of this suspension was added to 100 ml of cold (−7° C.+2° C.) test solution and mixed well, providing an initial inoculum of 10^3 CFU/ml. The test solutions were incubated at −7° C.+/−2° C. for the duration of the experiment. At intervals of 0, 4, and 24 hours the L. monocytogenes populations in the test solutions were determined on Modified Oxford agar (MOX). MOX plates were incubated at 35° C.+/−2° C. for approximately 48 hours. Colonies were then counted and compared to the initial inoculum counts.
Each test solution was a 17% by weight solution of the listed formula prepared in soft water.
In another experiment, 17% by weight solutions of formulas containing various levels of sodium chloride, citric acid, and sodium lauryl sulfate were tested for effectiveness in killing L. monocytogenes at cold temperatures. The same test procedure was used as described above, except test solutions were plated on MOX with a Thin Agar Overlay of TSA (to aid in the recovery of injured cells).
In another experiment, two sets of solutions were tested. The first set (samples 1-12 in Table 10 below) was prepared in hard tap water and contained about 17.0% by mass of the formulation. These samples were inoculated with 10^3 CFU/ml L. monocytogenes by the same procedure as described above. A second set of samples was prepared from brine taken from a ready-to-eat meat processing operation. The recirculated brine had been used to chill packaged meat for one week. After a week of use the brine typically contains various types of aerobic psychotropic and mesophilic bacteria. This experiment was done in order to determine if the additives would kill the microorganisms naturally occurring in actual process brine from a plant. Since the spent chill brine samples already contained NaCl citric acid and/or SLS was added to provide an effective concentration of additive. One set of these samples (samples 13-17) were inoculated with 10^3 L. monocytogenes and the other set (samples 18-22) contained only the naturally occurring organisms in the spent chill brine. […] Other antimicrobials, such as quaternary ammonium compounds can lose significant activity in hard water, often necessitating further additives, such as EDTA as a chelating agent, to maintain antimicrobial activity.
Another set of experiments was done in order to determine the effectiveness of different acids and different types of surfactants in the antimicrobial salt formulations. In one experiment, test solutions containing ˜17% by weight of formulas containing various levels of sodium chloride, 100 ppm sodium lauryl sulfate, and various levels of different acids were tested for effectiveness in killing L. monocytogenes at cold temperatures. The same test procedure was used as described above (test solutions were plated on MOX TAL (Modified Oxford Medium with a Thin Agar Layer) with TSA). The controls were a solution of pure NaCl, a solution of a blend of 100 ppm SLS in NaCl, and a solution of a blend of 0.5% citric acid, 100 ppm SLS, and 99.5% NaCl.

[4] = test system: Escherichia coli ATCC 11229; test: E. coli kill in acid/SLS solutions with and without salt; settings: for % Kill of E. Coli: 0.6409 grams malic acid and 0.0107 grams sodium lauryl sulfate per liter, with 107.0 grams of the listed salt or without; for kill of E. coli by solution containing only the salt: only the salt and no other ingredient
Description: Ten percent by weight solutions were prepared of a formula of 0.6% citric or malic acid, 100 ppm SLS, and 99.4% sodium chloride. Solutions were also prepared containing an identical concentration of acid and SLS but no sodium chloride. […] A 1.0 ml aliquot of this suspension was added to 100 ml of test solution at room temperature and mixed well, providing an initial inoculum of 10^3 CFU/ml. After 30 minutes, the E. coli populations were enumerated by plating on tryptic soy agar (TSA), making serial dilutions as necessary in BPBW. Plates were incubated at 35° C.+/−2° C. for approximately 24 hours. Colonies were then counted and compared to the initial inoculum counts.
A test was run to determine if salts other than sodium chloride would show a synergistic antimicrobial effect with an acid and sodium lauryl sulfate. Solutions containing 0.6409 grams malic acid and 0.0107 grams sodium lauryl sulfate per liter were prepared with and without 107.0 grams of various salts (added on an anhydrous basis). Solutions were inoculated with E. coli described above and the amount of bacterial kill was measured to determine if the added salt caused an increase in the effectiveness of the acid/surfactant active ingredients.

[5] = Table 2, different salts and salt concentrations
[6] = 17% by weight of formula of 99.7% sodium chloride, 0.3% citric acid, 500 ppm of listed surfactant

nonylphenol ethoxylate [25 ppm nonylphenol ethoxylate]
L. mono count (L. monocytogenes [1]): <10 cfu/mL

sodium olefin sulfonate [50 ppm sodium olefin sulfonate]
L. mono count (L. monocytogenes [1]): 10 cfu/mL
L. mono count (L. monocytogenes [2]; [5]): 1.8 × 10^5 cfu/mL

sodium linear alkyl-benzene sulfonate
L. monocytogenes, Time 4 Hours (L. monocytogenes [3]; [6]): 0 CFU/ml
L. monocytogenes, Time 0 (L. monocytogenes [3]; [6]): 490 CFU/ml

fatty alkanolaminde [12.5 ppm fatty alkanolaminde]
L. mono count (L. monocytogenes [1]): 40 cfu/mL

alkylpolyglucoside
L. monocytogenes, Time 4 Hours (L. monocytogenes [3]; [6]): 0 CFU/ml
L. monocytogenes, Time 0 (L. monocytogenes [3]; [6]): 280 CFU/ml

sulfonated oleic acid, Na salt [50 ppm sulfonated oleic acid, Na salt]
L. mono count (L. monocytogenes [2]; Table 1): 1.3 × 10^5 cfu/mL

alpha-olefin sulfonate
L. monocytogenes, Time 4 Hours (L. monocytogenes [3]; [6]): 0 CFU/ml
L. monocytogenes, Time 0 (L. monocytogenes [3]; [6]): 370 CFU/ml

[Cl-].[Na+] [Salt control, reference compound]
L. monocytogenes, Time 4 Hours (L. monocytogenes [3]; ˜17% solution of NaCl, 100 ppm SLS and listed acid to pH ˜3.6): 1380 CFU/ml
L. monocytogenes, Time 0 (L. monocytogenes [3]; ˜17% solution of NaCl, 100 ppm SLS and listed acid to pH ˜3.6, MOX TAL): 850 CFU/ml

O=S(=O)([O-])[O-].[Mg+2] [Magnesium sulfate]
% Kill of E. Coli [4]: 93%
kill of E. coli by solution containing only the salt [4]: 10%

CC(=O)[O-].[Na+] [20% Sodium Acetate, Sodium Acetate, reference compound]
L. mono count (L. monocytogenes [2]; [5]): 3.0 × 10^4 cfu/mL

nonylphenol ethoxylate [12.5 ppm nonylphenol ethoxylate]
L. mono count (L. monocytogenes [1]): 20 cfu/mL

[Cl-].[Na+] [sodium chloride, reference compound]
% Kill of E. Coli [4]: 78%
kill of the test microorganisms ([4]; 10% solution of pure sodium chloride): does not provide any significant kill
log reduction of the L. monocytogenes over a 24-hour period (L. monocytogenes [3]; brine of sodium chloride alone, 24-hour period): < 1 log

sodium olefin sulfonate [25 ppm sodium olefin sulfonate]
L. mono count (L. monocytogenes [1]): 60 cfu/mL

CC(=O)[O-].[K+] [20% Potassium Acetate, Potassium Acetate, reference compound]
L. mono count (L. monocytogenes [2]; [5]): 4.2 × 10^5 cfu/mL

O=S(=O)([O-])[O-].[Na+].[Na+] [Sodium sulfate]
% Kill of E. Coli [4]: 87%
kill of E. coli by solution containing only the salt [4]: no bacterial kill

C12(branched) sodium diphenyl oxide disulfonate
L. mono count (L. monocytogenes [2]; [5]): 3.1 × 10^4 cfu/mL

fatty alkanolamide
L. monocytogenes, Time 4 Hours (L. monocytogenes [3]; [6]): 0 CFU/ml
L. monocytogenes, Time 0 (L. monocytogenes [3]; [6]): 470 CFU/ml

[Ca+2].[Cl-].[Cl-] [Calcium chloride]
% Kill of E. Coli [4]: 55%
kill of E. coli by solution containing only the salt [4]: 26%

sodium linear alkylbenzene [25 ppm sodium linear alkylbenzene]
L. mono count (L. monocytogenes [1]): <10 cfu/mL

[Cl-].[K+] [Potassium chloride]
% Kill of E. Coli [4]: 18%
kill of E. coli by solution containing only the salt [4]: no bacterial kill

fatty alkanolaminde [25 ppm fatty alkanolaminde]
L. mono count (L. monocytogenes [1]): <10 cfu/mL

nonylphenol ethoxylate
L. monocytogenes, Time 4 Hours (L. monocytogenes [3]; [6]): 0 CFU/ml
L. monocytogenes, Time 0 (L. monocytogenes [3]; [6]): 460 CFU/ml

[Cl-].[Cl-].[Mg+2] [Magnesium chloride]
% Kill of E. Coli [4]: 56%
kill of E. coli by solution containing only the salt [4]: 61%

lauramine oxide
L. monocytogenes, Time 4 Hours (L. monocytogenes [3]; [6]): 0 CFU/ml
L. monocytogenes, Time 0 (L. monocytogenes [3]; [6]): 2 CFU/ml

CCCCCCCCCCCCOS(=O)(=O)[O-].[Na+] [50 ppm SLS (no NaCl), sodium lauryl sulfate]
Population at 4 hours (L. monocytogenes [3]): 3.90* log cfu/mL

polyoxyethylene-polyoxypropylene block polymer
L. monocytogenes, Time 4 Hours (L. monocytogenes [3]; [6]): 610 CFU/ml
L. monocytogenes, Time 0 (L. monocytogenes [3]; [6]): 820 CFU/ml

[Cl-].[Na+] [20% NaCl (control), sodium chloride, reference compound]
L. mono count (L. monocytogenes [2]; Table 1): 1.0 × 10^5 cfu/mL
L. mono count (L. monocytogenes [2]; [5]): 4.0 × 10^5 cfu/mL
Population at 4 hours (L. monocytogenes [3]): 4.32 log cfu/mL

sodium linear alkylbenzene sulfonate
L. mono count (L. monocytogenes [1]): <10 cfu/mL
L. mono count (L. monocytogenes [2]; Table 1): 5.9 × 10^3 cfu/mL

O=C[O-].[Na+] [20% Sodium Formate, Sodium Formate, reference compound]
L. mono count (L. monocytogenes [2]; [5]): 3.6 × 10^5 cfu/mL

sodium olefin sulfonate [12.5 ppm sodium olefin sulfonate]
L. mono count (L. monocytogenes [1]): 110 cfu/mL

dodecyl diphenyl oxide disulfonate
L. monocytogenes, Time 4 Hours (L. monocytogenes [3]; [6]): 0 CFU/ml
L. monocytogenes, Time 0 (L. monocytogenes [3]; [6]): 0 CFU/ml

sodium xylene sulfonate
L. monocytogenes, Time 4 Hours (L. monocytogenes [3]; [6]): 820 CFU/ml
L. monocytogenes, Time 0 (L. monocytogenes [3]; [6]): 910 CFU/ml

fatty alkanolamide [50 ppm fatty alkanolamide]
L. mono count (L. monocytogenes [1]): <10 cfu/mL
L. mono count (L. monocytogenes [2]; Table 1): 1.1 × 10^4 cfu/mL

lauramine oxide [50 ppm lauramine oxide]
L. mono count (L. monocytogenes [1]): <10 cfu/mL
L. mono count (L. monocytogenes [2]; Table 1): 3.6 × 10^3 cfu/mL
L. mono count (L. monocytogenes [2]; [5]): 5.8 × 10^4 cfu/mL

alkyl polyglucoside [50 ppm alkyl polyglucoside]
L. mono count (L. monocytogenes [2]; Table 1): 9.6 × 10^4 cfu/mL

O=S(=O)([O-])[O-].[K+].[K+] [Potassium sulfate]
% Kill of E. Coli [4]: 34%
kill of E. coli by solution containing only the salt [4]: no bacterial kill

sodium salt of sulfonated oleic acid
L. monocytogenes, Time 4 Hours (L. monocytogenes [3]; [6]): 0 CFU/ml
L. monocytogenes, Time 0 (L. monocytogenes [3]; [6]): 240 CFU/ml
